# How the values were obtained:
# [1] = system: panel of human tumour cell lines; assay: anti-cancer activity, tetrazolium-based proliferation assay (EZ4U kit) in a panel of tumour cell lines; details: result in words
# Procedure: For the following test the following cell lines have been used:
# Cell lines. Except indicated otherwise all cell lines were obtained from the American Type Culture Collection (ATCC, Rockville, Md.) and grown to confluent monolayers in RPMI-1640 bicarbonate medium (Seromed, Berlin, Germany) in a humidified incubator (5% CO2, 37° C.). Cells were checked for mycoplasma contamination. The medium was supplemented with 10% heat-inactivated fetal bovine serum (Seromed) and 4 mM glutamine. The cells were subcultured by trypsination (0.03% trypsin containing 0.02% EDTA, three times a week). Cell numbers were counted using a TOA Sysmex microcellcounter (TOA, Tokyo, Japan).
# Chemicals and solutions. Unless otherwise mentioned, all chemicals were obtained from Sigma (St. Louis, Mo.). Compounds to be tested were used as supplied. CHP was used as 5 mg/ml stock solution in PBS (phosphate buffered saline, Dulbecco) and aliquots were stored frozen at −20° C. Related compounds were used as 2 mg/ml stock solution and stored frozen at −20° C. […]
# Following incubation proliferation was measured using a tetrazolium-based assay (EZ4U kit, Biomedica, Vienna, Austria). Optical densities (OD) of the individual wells was determined with the help of an ELISA-Reader (all values done in triplicate) and the values obtained in medium controls set to 100% (OD490nm=0.5-1.5). […]
# [2] = system: Fibroblast (Flow 4000, lung fibroblasts); assay: toxicity on normal cells, tetrazolium-based proliferation assay (EZ4U kit); format: cell-based; details: for % Inhibition of growth: concentration of 1:400, normal cells, Flow 4000 lung fibroblasts, 4 days incubation; for toxicity to fibroblasts: result in words
# Procedure: Cells were distributed to the wells of 96 well microtiter plates (10000 cells/well) in tissue culture medium (RPMI-1640 supplemented with 10% fetal bovine serum and 4 mM glutamine) and medium added for controls. Test compounds were added in the reported dilution steps and the plates incubated for 4 days under tissue culture conditions (37° C., 5% CO2).
# Following incubation proliferation was measured using a tetrazolium-based assay (EZ4U kit, Biomedica, Vienna, Austria). Optical densities (OD) of the individual wells was determined with the help of an ELISA-Reader (all values done in triplicate) and the values obtained in medium controls set to 100% (OD490nm=0.5-1.5).
# In addition the toxicity of a number of the esters of the invention have been tested on normal cells, Fibroblast (Flow 4000, lung fibroblasts).
Compound,antitumor activity [1],% Inhibition of growth [2] [%],toxicity to fibroblasts [2]
"CC(=O)OCC#CCN1CCOCC1 [L2, N-(4-morpholino-2-butynyl)acetate]",highest antitumor activity,18,low toxicity to fibroblasts
"O=C(OCC#CCN1CCOCC1)c1ccccc1 [L4, N-(4-morpholino-2-butynyl)benzoate]",–,34.2,–
"O=COCC#CCN1CCOCC1 [L6, N-(4-morpholino-2-butynyl)formate]",–,37.4,–
"CCN(CC)CC#CCOC(C)=O [L9, N-[4-(N,N-diethylamino)-2-butynyl]acetate]",–,5.4,–
"CC(=O)OCC#CCN(c1ccccc1)c1ccccc1 [L12, N-[4-(N,N-diphenylamino)-2-butynyl]acetate]",–,−7.6,–
"CC(=O)OCC#CCN1CCSCC1 [L13, N-(4-thiomorpholino-2-butynyl)acetate]",–,19,–
"CCC(=O)OCC#CCN1CCOCC1 [L15, N-(4-morpholino-2-butynyl)propionate]",–,13,–
"CC(C)(C)C(=O)OCC#CCN1CCOCC1 [L18, N-(4-morpholino-2-butynyl)pivalate]",highest antitumor activity,7,low toxicity to fibroblasts
